Measured values reported in patent US20240182526A1, “COMPOSITIONS AND METHODS FOR MODULTING INFLAMMATORY AND DEGENERATIVE DISORDER” (University of Southern California, priority 2021, published 2024).
Entries after “also recorded” stand apart in the source; their conditions may differ.

Key:
MAPK (ERK 1/2) = assay: Western blot of MAPK (pERK 1/2) in OSM-stimulated pig articular chondrocytes; format: cell-based
Procedure: (§1) For standard western blot, treated and non-treated cells were lysed in RIPA Lysis and Extraction Buffer (Pierce, Rockford, IL) containing protease inhibitors (Pierce) followed by sonication with a 15-second pulse at a power output of 2 using the VirSonic 100 (SP Industries Company, Warminster, PA). Protein concentrations were determined by BCA protein assay (Pierce). Proteins were resolved with SDS-PAGE utilizing 4-15% Mini-PROTEAN TGX Precast Gels and transferred to Trans-Blot Turbo Transfer Packs with a 0.2-μm pore-size nitrocellulose membrane. The SDS-PAGE running buffer, 4-15% Mini-PROTEAN TGX Precast Gels, Trans-Blot Turbo Transfer Packs with a 0.2-μm pore-size nitrocellulose membrane was purchased from Biorad (Hercules, CA). Nitrocellulose membranes were blocked in 5% nonfat milk in 0.05% (v/v) Tween 20 (PBST) (Corning, Manassas, VA). Membranes were then incubated with primary antibodies p-gp130 Y814 (Evseenko lab, AbClonal), p-AKT (cat #4060, Cell Signaling), p-ERK 1/2 (cat #9106, Cell Signaling), p-Y416-SRC (cat #1246F, Novus Biologicals), p-gp130 (cat #1453R, Bioss USA) and p-NFκBp65 (cat #8242, Cell Signaling), and/or YAP1 (cat #4912, Cell Signaling). Histone H3 (cat #9515, Cell Signaling) was used as loading control. […] Quantification of blots was performed using ImageJ 1.44 followed by Prism9 for analysis.

c-MYC = assay: Western blot of c-MYC in pig articular chondrocytes; format: cell-based
STAT3 = assay: Western blot of STAT3 signaling in osteoarthritic chondrocytes; format: cell-based, human; settings: 4 and 24 hours
Procedure: as §1

[1] = tested on: mouse skin excisional wound; assay: Wound-induced hair neogenesis (WIHN) assay, skin excisional wound; format: in vivo
Procedure: Single-cell sequencing using 10× Genomics. Single cell samples were prepared using Next GEM Single Cell 5′ v2 (dual index) and Chip Kit (10× Genomics) according to the manufacturer's protocol. Briefly samples were FACS sorted using DAPI to select live cells followed by resuspension in 0.04% BSA-PBS. Nearly 1200 cells/μl were added to each well of the chip with a target cell recovery estimate of 10000 cells. Thereafter Gel bead-in Emulsions (GEMs) were generated using GemCode Single-Cell Instrument. GEMs were reverse transcribed, droplets were broken and single stranded cDNA was isolated. cDNAs were cleaned up with DynaBeads and amplified. Finally, cDNAs were ligated with adapters, post-ligation products were amplified, cleaned-up with SPRIselect and purified libraries were sequenced on Novaseq.
Wound-induced hair neogenesis assay. The WHIN assay was previously described. Briefly, a 1.5×1.5 cm square full thickness wound was excised on the posterior dorsum of 6-week-oldf mice, and observed for hair neogenesis and wound histology. Mice were anesthetized using isofluorane, full thickness skin was excised, and analgesic Buprenorphine SR (0.5 mg/kg) was given by intraperitoneal injection (IP) at the beginning of the procedure. Additional DietGel Boost (ClearH2O) was placed on the bottom of the cage during the first week post-operation. For R805-treatment, R805 (10 μM or 20 μM) was applied topically to the wound of WT mice.
Alkaline phosphatase (ALP) stain. To detect newly forming dermal papillae, alkaline phosphatase staining was performed as previously reported. Briefly, full thickness wounds were excised and epidermis separated from the dermis using 20 mM EDTA. The dermis was fixed in acetone overnight at 4° C., and washed in PBS several times. The dermis was pre-incubated in ALP buffer (0.1 M Tris-HCl, 0.1 M NaCl, 5 mM MgCl2 and 0.1% Tween-20) for 30 min, incubated with BCIP/NBT Color Development Substrate (Promega, Madison, WI, USA) in ALP buffer at 37° C. until color development. The reaction was stopped by washing with pH 8.0 Tris-EDTA and the tissue stored in PBS with sodium azide. 5 wounds were calculated for each strain of mice.
Hair fiber length quantification. To quantify regenerated hair fiber length, hair fibers from respective wounds were plucked, aligned and photographed next to a ruler under the dissecting microscope. The length of the hair fibers was measured and analyzed using ImageJ. 3-4 hairs were randomly plucked from each wound and analyzed.

[2] = 90-day pharmacokinetic study after intra-articular injection in Beagles; format: in vivo; settings: Beagle
Procedure: Pharmacokinetic assessment of R805. Pharmacokinetics were conducted in a canine model for over 90 days. Purpose-bred beagles with intact stifles were injected intra-articularly with 500 μL of physiological saline containing 0.25% carboxymethyl cellulose (CMC) and either 1 μg or 100 ng of […] (n=4 each). Synovial fluid and plasma were collected at d0, d3, d7, d14, d21, d31, d60 and d90 and analyzed by LC-MS/MS. Doses of 10 μg, 1 μg and 0.1 μg of R805 were utilized for the main experiment.

[3] = topical on WT mouse wound, PWD 21

In the case of `Cc1ccc(-c2csc(NC(=O)c3ccccn3)n2)cc1` [Peptide R805], the “MAPK (pERK 1/2) activation induced by OSM” value (MAPK (ERK 1/2)) was “markedly suppressed”, the “protein levels of c-MYC (MYC signaling)” value (c-MYC) was “does not activate MYC signaling” and the “STAT3 signaling in diseased joint cells” value (STAT3) was “minimally affected STAT3 signaling in a diseased joint”. For the same molecule, the “scRNA-seq macrophage clusters of skin wounds” value ([1]; PWD 14) was “higher expression of genes characteristic of pro-regenerative/anti-inflammatory macrophages”, the “hair fiber length and number of hair follicles” value ([1]; topical on WT mouse wound) was “increase of hair fiber length and number of hair follicles” and the “hair follicle neogenesis and dermal regeneration” value [1, 3] was “significant hair follicle neogenesis and dermal regeneration; also recorded: enhanced wound-induced hair neogenesis”. The “wound histology (thickness, contraction, collagen deposition)” value [1, 3] was “thicker, less contracted and shows less collagen deposition”, the “time that IC50 concentrations of R805 were maintained in the joint” value ([2]; 1 μg intra-articular injection) was 3 weeks and the “detection in systemic circulation” value ([2]; intra-articular injection, 90-day study) was “never detected in systemic circulation; also recorded: not detected in systemic circulation”.
